# Patent US7745422B2, “Bisphosphonate compounds and methods for bone resorption diseases, cancer, bone pain, immune disorders, and infectious diseases” (The Board of Trustees of the University of Illinois, priority 2004, dated 2010)
# pEC50, pIC50, pKi: −log10 of the molar value. Read-outs that look alike come from different tables or passages of the source.
# Key:
# Dictyostelium discoideum = experiment: D. discoideum cell growth inhibition; type: cell-based
# Text: (§1) We then investigated the activity of each compound in inhibiting the FPPS from L. major, in Dictyostelium discoideum growth inhibition and in γδ T cell activation. We used the FPPS from L. major since this enzyme is the putative bisphosphonate target in several trypanosomatid species.
# human FPPS = target: T1, human FPPS (Homo sapiens, UniProt P14324); experiment: human FPPS assay; type: biochemical
# T1 sequence (P14324 1-419): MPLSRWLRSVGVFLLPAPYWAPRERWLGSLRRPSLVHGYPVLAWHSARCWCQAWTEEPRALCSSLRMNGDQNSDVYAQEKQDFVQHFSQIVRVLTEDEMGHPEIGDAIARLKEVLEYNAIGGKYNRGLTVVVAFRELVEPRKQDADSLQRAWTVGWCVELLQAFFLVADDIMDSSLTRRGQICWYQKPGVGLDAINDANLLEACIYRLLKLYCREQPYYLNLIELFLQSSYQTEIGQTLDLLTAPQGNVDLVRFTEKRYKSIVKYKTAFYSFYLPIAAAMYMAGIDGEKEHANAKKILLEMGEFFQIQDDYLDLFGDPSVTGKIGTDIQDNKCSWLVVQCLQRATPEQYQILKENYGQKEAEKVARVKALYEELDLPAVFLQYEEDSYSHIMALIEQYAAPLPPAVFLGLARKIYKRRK
# [1] = test system: human nasopharyngeal carcinoma cells; experiment: Toxicity testing in human nasopharyngeal carcinoma cells; type: cell-based; conditions: for IC50: read-out: (5) Toxicity IC50
# Procedure: We have obtained data for selected bisphosphonate compounds in the contexts of D. discoideum assays, human FPPS assays, gammadelta T cell stimulation assays, and bone resorption assays. […] Some toxicity testing was also performed. See Table 4 (in some instances, the same data depicted elsewhere herein, e.g., in Table 1, may be presented again to facilitate comparative analysis).
# T. cruzi = experiment: Activity against T. cruzi; type: cell-based; conditions: Trypanosoma cruzi; Table 5; read-out: (8) T. cruzi IC50
# Text: (§2) We have obtained data for selected bisphosphonate compounds against parasites including Trypanosoma brucei, Trypanosoma cruzi, and Leishmania major. […] See Table 5 (in some instances, the same data depicted elsewhere herein, e.g., in Table 1, may be presented again to facilitate comparative analysis).
# Vγ2Vδ2 T cells = experiment: gammadelta T cell stimulation (TNF-α release assay); type: cell-based, human
# Text: as §1
# fetal mouse metatarsals = experiment: bone resorption assay: 45Ca2+ release from 17-day old fetal mouse metatarsals; type: cell-based; conditions: for pIC50: Table 4
# Procedure: Compounds are tested in a bone resorption assay: ^45Ca^2+ release from 17-day old fetal mouse metatarsals (ref. 37).
# L. major FPPS = target: T2, L. major FPPS (Leishmania major, UniProt Q4QBL1); experiment: biochemical; type: biochemical
# T2 sequence (Q4QBL1 1-362): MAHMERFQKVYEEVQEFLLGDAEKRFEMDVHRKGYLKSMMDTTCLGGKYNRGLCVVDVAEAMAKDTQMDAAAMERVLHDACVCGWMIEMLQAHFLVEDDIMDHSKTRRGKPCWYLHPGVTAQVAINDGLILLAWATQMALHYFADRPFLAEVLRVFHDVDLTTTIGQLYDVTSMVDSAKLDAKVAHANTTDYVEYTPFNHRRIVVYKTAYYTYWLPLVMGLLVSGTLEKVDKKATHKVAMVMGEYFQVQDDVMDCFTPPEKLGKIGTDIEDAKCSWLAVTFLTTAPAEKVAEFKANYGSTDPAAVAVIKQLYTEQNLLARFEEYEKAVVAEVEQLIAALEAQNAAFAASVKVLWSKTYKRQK
# Text: as §1
# [2] = target: T. brucei soluble vacuolar pyrophosphatase; experiment: T. brucei soluble vacuolar pyrophosphatase inhibition; type: biochemical, Trypanosoma brucei; conditions: Table 5; read-out: (9) T. brucei soluble vacuolar pyrophosphatase IC50
# Text: as §2
# [3] = Table 4, read-out: (1) D. discoideum IC50
# [4] = Table 4, read-out: (2) human FPPS IC50
# [5] = Dictyostelium discoideum, read-out: (1) D. discoideum IC50
# [6] = Dictyostelium discoideum, read-out: D. discoideum IC50
# [7] = Homo sapiens, T-cell, read-out: (3) gammadelta T cell stimulation EC50
# [8] = Homo sapiens, T-cell, read-out: gammadelta T cell stimulation EC50
# [9] = Homo sapiens, T-cell, read-out: gammadelta T cell stimulation, EC50
# [10] = Table 1 and text, read-out: L. major FPPS Ki
# [11] = cell growth inhibition, Table 1 and text, read-out: D. discoideum IC50
# [12] = TNF-α release, Table 1 and text, read-out: gammadelta T cell stimulation, EC50
# [13] = Table 3, additional testing, read-out: gammadelta T cell stimulation EC50
# [14] = Table 5, read-out: (7) L. major FPPS Ki
# [15] = Table 4, read-out: (3) gammadelta T cell stimulation EC50
smiles,measurement,setting,value
"CC([n+]1ccccc1)C(O)(P(=O)([O-])O)P(=O)(O)O (single isomer, unassigned) [Compound 591]",pIC50,Dictyostelium discoideum; [3],4.42
same,pIC50,human FPPS; [4],4.54
O=P([O-])(O)C(O)(C[n+]1ccccc1)P(=O)(O)O (stereo not shown) [Compound 278],pIC50,Dictyostelium discoideum; [5],5.59
same,pIC50,Dictyostelium discoideum; [6],5.68
same,pIC50,human FPPS,5.80
same,IC50,[1],300 µg/mL
same,IC50,T. cruzi,3.07 µg/mL
same,pEC50,Vγ2Vδ2 T cells; [7],5.29
same,pEC50,Vγ2Vδ2 T cells; [8],5.32
same,pEC50,Vγ2Vδ2 T cells; [9],5.29
same,pIC50,fetal mouse metatarsals; Mus musculus,6.17
Cc1ccc[n+](CC(O)(P(=O)([O-])O)P(=O)(O)O)c1 (stereo not shown) [Compound 297],pKi,L. major FPPS; [10],7.42
same,pIC50,Dictyostelium discoideum; [3],5.55
same,pIC50,Dictyostelium discoideum; [11],5.82
same,(5) Toxicity IC50,[1],5.3 µg/mL
same,pEC50,Vγ2Vδ2 T cells; [12],5.34
same,pEC50,Vγ2Vδ2 T cells; [13],5.31
same,pIC50,fetal mouse metatarsals,6.66
O=P([O-])(O)C(O)(C[n+]1cccc(-c2ccccc2)c1)P(=O)(O)O (stereo not shown) [Compound 300],pIC50,Dictyostelium discoideum; [5],5.55
same,pIC50,Dictyostelium discoideum; [6],5.55
same,pIC50,human FPPS,5.77
same,IC50,[1],5.4 µg/mL
same,pEC50,Vγ2Vδ2 T cells; [7],5.43
same,pEC50,Vγ2Vδ2 T cells; [8],5.68
same,pEC50,Vγ2Vδ2 T cells; [9],5.43
same,pIC50,[2],4.46
same,pIC50,fetal mouse metatarsals; Mus musculus,6.39
O=P([O-])(O)C(O)(C[n+]1cccc(Cc2ccccc2)c1)P(=O)(O)O (stereo not shown) [Compound 335],pKi,L. major FPPS; [10],6.80
same,pKi,L. major FPPS; [14],6.80
same,pIC50,Dictyostelium discoideum; [3],4.96
same,pIC50,Dictyostelium discoideum; [11],5.07
same,activity in gammadelta T cell stimulation,Vγ2Vδ2 T cells; TNF-α release,poor activity
same,pEC50,Vγ2Vδ2 T cells; [12],3.37
same,pEC50,Vγ2Vδ2 T cells; [13],4.20
same,pEC50,Vγ2Vδ2 T cells; [15],3.37
same,pIC50,[2],4.15
Cc1cccc(Cc2ccc[n+](CC(O)(P(=O)([O-])O)P(=O)(O)O)c2)c1 (stereo not shown) [Compound 344],pKi,L. major FPPS; [10],7.15
same,pKi,L. major FPPS; [14],7.15
same,pIC50,Dictyostelium discoideum; [3],5.07
same,pIC50,Dictyostelium discoideum; [11],5.00
same,pIC50,human FPPS; [4],4.77
same,activity in gammadelta T cell stimulation,Vγ2Vδ2 T cells; TNF-α release,poor activity
same,pEC50,Vγ2Vδ2 T cells; [12],3.85
same,pEC50,Vγ2Vδ2 T cells; [15],3.85
same,pIC50,[2],4.11
O=P([O-])(O)C(O)(C[n+]1cccc(-c2ccc(O)cc2)c1)P(=O)(O)O (stereo not shown) [Compound 359],pKi,L. major FPPS; [10],7.12
same,pIC50,Dictyostelium discoideum; [3],5.54
same,pIC50,Dictyostelium discoideum; [11],5.54
same,pEC50,Vγ2Vδ2 T cells; [12],4.62
same,pEC50,Vγ2Vδ2 T cells; [15],4.62
O=P([O-])(O)C(O)(C[n+]1cccc(-c2cccc(-c3ccccc3)c2)c1)P(=O)(O)O (stereo not shown) [Compound 364],pIC50,human FPPS; [4],4.43
same,pEC50,Vγ2Vδ2 T cells; [12],< 3.00
same,pEC50,Vγ2Vδ2 T cells; [15],< 3.00
CCCCc1ccc[n+](CC(O)(P(=O)([O-])O)P(=O)(O)O)c1 (stereo not shown) [Compound 445],pKi,L. major FPPS; [10],7.70
same,pIC50,Dictyostelium discoideum; [3],5.52
same,pIC50,Dictyostelium discoideum; [11],5.54
same,pEC50,Vγ2Vδ2 T cells; [12],5.28
same,pEC50,Vγ2Vδ2 T cells; [13],5.60
same,pEC50,Vγ2Vδ2 T cells; [15],5.28
COc1ccc[n+](CC(O)(P(=O)([O-])O)P(=O)(O)O)c1 (stereo not shown) [Compound 446],pKi,L. major FPPS; [10],7.52
same,pIC50,Dictyostelium discoideum; [3],5.22
same,pIC50,Dictyostelium discoideum; [11],5.22
same,pEC50,Vγ2Vδ2 T cells; [12],5.34
same,pIC50,fetal mouse metatarsals,6.43
CN(C)c1cc[n+](CC(O)(P(=O)([O-])O)P(=O)(O)O)cc1 (stereo not shown) [Compound 451],pIC50,Dictyostelium discoideum; [3],4.51
same,pIC50,human FPPS; [4],3.55
same,(3) gammadelta T cell stimulation EC50,Vγ2Vδ2 T cells; Table 4,inactive
O=P([O-])(O)C(O)(C[n+]1cccc(F)c1)P(=O)(O)O (stereo not shown) [Compound 461],pKi,L. major FPPS; [14],7.30
same,pIC50,Dictyostelium discoideum; [5],5.43
same,pEC50,Vγ2Vδ2 T cells; [7],5.57
same,pEC50,Vγ2Vδ2 T cells; [8],5.57
same,potency in bone resorption,fetal mouse metatarsals,very potent
same,pIC50,fetal mouse metatarsals; Mus musculus,7.12
